test system: not given; test: not given; conditions: cited from earlier work

| SMILES | logP(o/w) |
| --- | --- |
| CCCCCCCC1CCCC(=O)O1 (racemic) [(+−)-5-dodecanolide] | 4.0 |
| Fc1cc(F)cc(F)c1 [1,3,5-Trifluorobenzene] | 2.6 |
| Fc1cccc(F)c1 [1,3-Difluorobenzene] | 2.4 |
| C=CC(C)(CCC=C(C)C)OC(=O)CCCCC (centres unmarked) [1,5-dimethyl-1-vinyl-4-hexenyl hexanoate] | 4.5 |
| CCCCCCCCN1CCCC1=O [1-octyl-2-pyrrolidinone] | 3.3 |
| CC(C)c1ccccc1O [2-isopropyl phenol] | 2.7 |
| CCCCC(C)C(=O)O (centres unmarked) [2-methyl hexanoic acid] | 2.1 |
| CC(C)=CC(=O)OCCc1ccccc1 [2-phenylethyl 3-methyl-2-butenoate] | 2.7 |
| Cc1cccc(I)c1 [3-Iodotoluene] | 3.7 |
| CC(C)CCN [3-methyl butylamine] | 1.1 |
| CCc1ccc(O)c(OC)c1 [4-ethyl-2-methoxy phenol] | 2.4 |
| CC/C=C\CCOC(=O)C(C)CC (centres unmarked) [(Z)-3-hexenyl 2-methylbutanoate] | 2.8 |
| CC/C=C\CCOC(C)=O [(Z)-3-hexenyl acetate] | 1.5 |
| CC/C=C\CCOC(=O)CCC [(Z)-3-hexenyl butanoate] | 2.4 |
| CCCCCCCCCC [Decane] | 5.3 |
| COC(=O)CCCCC(=O)OC [Dimethyl adipate] | 1.4 |

| SMILES | logP(o/w) |
| --- | --- |
| CCCCCCCO [Micap 1-Heptanol, 1-Heptanol] | 3.1 |
| CCCCCC1CCCC(=O)O1 (centres unmarked) [Micap 5-decanolide, 5-decanolide] | 3.1 |
| CCCCCCCCC [Nonane] | 4.8 |
| CCCCCCCCCCCCCC [Tetradecane] | 7.2 |
| CCCSSCCC [dipropyl disulfide] | 3.7 |
| CCOC(=O)CC(C)C [ethyl 3-methylbutanoate] | 1.8 |
| CC/C=C/CC(=O)OCC [ethyl (E)-3-hexenoate] | 1.7 |
| CCCCCC(=O)OCC [ethyl hexanoate] | 2.3 |
| CCCCCCCCC(=O)OCC [ethyl nonanoate] | 3.7 |
| CCCCCC(C)=O [heptan-2-one] | 1.9 |
| CCCCCCC(C)=O [octan-2-one] | 2.3 |
| CCCCCCCCO [octanol] | 2.8 |
| CCCCCCCCOC(C)=O [octyl acetate] | 3.3 |
| CCCCCCCCOC(=O)C(C)C [octyl isobutyrate] | 4.2 |
| CC(=O)OCC(COC(C)=O)OC(C)=O [triacetin] | 0.4 |

test system: Candida Albicans; test: Franz cell bioassay, infected stratum corneum sheet, ATP assay; type: cell-based; conditions: after 2 hours incubation, FIG. 6
Procedure: The concentration of organisms in suspension was determined by fluorescence technique and a viable count used for confirmation by conducting an ATP assay where ATP in cell lysate represents a measure for viable cells. Therefore, the number of viable cells after exposure to drug can be measured for drug activity and was used for suspension method or skin model.
Stratum corneum (SC) sheets were infected with microorganisms in-vitro and a Franz cell was set-up to provide more realistic conditions than agar plate test
A sample of Candida albicans (5×10^7) was dried on the stratum corneum sheet and PBS used as receiver fluid. The Micap formulations were used at 10% aqueous suspensions and the Micap formulations and Pevaryl® were applied to the stratum corneum sheet and incubated at 37° C. The reaction was stopped after set time by dismantling the Franz cell and transferring the stratum corneum into TCA. ATP assay was then carried out on the cell lysate to determine activity.

| SMILES | ATP remaining |
| --- | --- |
| CCO [20% ethanol, ethanol] | 75% |
